In patent US20130011427A1 (priority 2009, published 2013):

Experiments:
Type in all cases: cell-based, mouse
[1] = tested on: HLA-DR4/huCD4 (DRB1*0401) Tg mice, CD8-depleted splenocytes
[2] = tested on: HLA-DR3 (DRB1*0301) Tg mice, CD8-depleted splenocytes
[3] = tested on: HLA-A2.1 (HLA-A*0201) Tg mice, CD4-depleted splenocytes
[4] = tested on: HLA-DR2 (DRB1*1501) Tg mice, CD8-depleted splenocytes

Sequence | T cell activation of HLA transgenic mice (SFC/10^6) IFN-γ ELISpot, DR4 [1] [SFC/10^6] | T cell activation of HLA transgenic mice (SFC/10^6) IFN-γ ELISpot, DR3 [2] [SFC/10^6] | T cell activation of HLA transgenic mice (SFC/10^6) IFN-γ ELISpot, A2 [3] [SFC/10^6] | T cell activation of HLA transgenic mice (SFC/10^6) IFN-γ ELISpot, DR2 [4] [SFC/10^6]
AEVRSYCYLATVSDLSTK [E 54-71] | 205 ± 56 |  |  | 
AHWTEARIMLDNINM [NS3 487-501] |  | 431 ± 112 | 308 ± 188 | 
ALLTPGLRCLNLDVYRIL [NS2a 160-177] |  | 59 ± 3 | 63 ± 18 | 
ARIMLDNINMPNGLIAQF [NS3 492-509] |  | 216 ± 42 |  | 
CLNLDVYRILLLMVGI [NS2a 168-183] |  | 231 ± 16 |  | 556 ± 33
CYGGHTNEDDSNFAHW [NS3 474-489] |  | 83 ± 23 | 92 ± 18 | 
DRRWCFDGPRTNTIL [NS3 560-574] |  | 225 ± 10 |  | 
DTGCAIDISRQELRCGSGV [NS1 1-19] |  | 572 ± 20 |  | 
DTPSPKEYKKGDTTTGVY [NS3 6-23] | 43 ± 6 |  |  | 
EGRVEIDFDYCPGTTVTL [NS1 270-287] | 54 ± 6 |  |  | 
EKLQLKGTTYGVCSKAFK [E 293-310] | 47 ± 5 |  |  | 
EKVYTMDGEYRLRGEERK [NS3 515-532] |  |  | 140 ± 24 | 95 ± 27
EQQINHHWHKSGSSIGKA [E 390-407] |  | 50 ± 6 |  | 
EVITKLGERKILRPRWI [NS3 581-597] | 52 ± 11 |  |  | 
EYRLRGEERKNFLELLR [NS3 523-539] |  |  | 57 ± 11 | 160 ± 48
FAESNSGGDVVHLALMA [NS2a 65-81] | 60 ± 13 |  |  | 
FDGPRTNTILEDNNEVEV [NS3 565-582] |  | 59 ± 3 |  | 
FRSLFGGMSWITQGLLGA [E 450-467] |  | 104 ± 21 | 205 ± 145 | 261 ± 13
GAGVMVEGVFHTLWHTTK [NS3 37-54] |  | 368 ± 66 |  | 149 ± 13
GCWGQVTLTVTVTAATLL [NS4b 101-118] | 134 ± 8 |  |  | 
GQVVTYALNTFTNLAVQL [NS5 605-622] | 240 ± 76 |  |  | 556 ± 27

Sequence | T cell activation of HLA transgenic mice (SFC/10^6) IFN-γ ELISpot, DR4 [1] [SFC/10^6] | T cell activation of HLA transgenic mice (SFC/10^6) IFN-γ ELISpot, DR3 [2] [SFC/10^6] | T cell activation of HLA transgenic mice (SFC/10^6) IFN-γ ELISpot, A2 [3] [SFC/10^6] | T cell activation of HLA transgenic mice (SFC/10^6) IFN-γ ELISpot, DR2 [4] [SFC/10^6]
GRTILKENIKYEVAIFVH [E 127-144] |  | 198 ± 21 |  | 120 ± 1
GVFIHNDVEAWMDRYKYY [NS1 18-35] |  | 52 ± 8 |  | 
GWPATEVMTAVGLMFAIV [NS2b 1-18] | 104 ± 18 |  |  | 
GWYDWQQVPFCSNHFTEL [NS5 704-721] | 65 ± 27 |  |  | 
HFMGKTWEALDTMYVVA [NS4a 15-31] | 187 ± 20 |  |  | 278 ± 26
HKSGSSIGKAFTTTLKGA [E 398-415] |  | 88 ± 1 |  | 168 ± 18
IKYEVAIFVHGPTTVESH [E 135-152] |  | 86 ± 13 |  | 
IVVGRGEQQINHHWHK [E 384-399] |  | 87 ± 16 |  | 
KVLIELEPPFGDSYIVV [E 370-386] | 148 ± 10 |  |  | 
LATVSDLSTKAACPTM [E 62-77] | 47 ± 4 |  | 465 ± 343 | 
LAVGGVLLFLSVNVHA [E 486-501] |  | 244 ± 16 | 323 ± 173 | 214 ± 27
LGALLLWMGINARDRSIA [E 465-482] |  | 330 ± 91 | 310 ± 186 | 490 ± 64
LVKTESWILRNPGYALVA [prM 121-138] | 56 ± 6 |  |  | 130 ± 23
LVQSYGWNIVTMKSGVDV [NS5 115-132] |  | 79 ± 23 |  | 
MLRKKQITVLDLHPGAGK [NS3 183-200] |  |  | 62 ± 24 | 55 ± 2
NEDDSNFAHWTEARIML [NS3 480-496] |  | 121 ± 1 |  | 
NMPNGLIAQFYQPEREKV [NS3 500-517] |  | 145 ± 49 |  | 51 ± 10
NTFTNLAVQLVRMMEGEGV [NS5 613-631] | 119 ± 21 |  |  | 
NWVPTGRTTWSIHAGGEW [NS5 791-808] | 78 ± 17 |  |  | 
PATAWSLYAVTTAVLTPL [NS4b 38-55] |  | 67 ± 13 |  | 57 ± 11
PFVDVGVSALLLAAGCW [NS4b 87-103] | 59 ± 14 |  |  | 

Sequence | T cell activation of HLA transgenic mice (SFC/10^6) IFN-γ ELISpot, DR4 [1] [SFC/10^6] | T cell activation of HLA transgenic mice (SFC/10^6) IFN-γ ELISpot, DR3 [2] [SFC/10^6] | T cell activation of HLA transgenic mice (SFC/10^6) IFN-γ ELISpot, A2 [3] [SFC/10^6] | T cell activation of HLA transgenic mice (SFC/10^6) IFN-γ ELISpot, DR2 [4] [SFC/10^6]
PQIIKEAINRRLRTAVLA [NS3 206-223] |  |  | 108 ± 22 | 323 ± 21
RGWGNGCGLFGKGSI [E 99-113] |  | 79 ± 7 |  | 
RLNDTWKLERAVLGEVK [NS1 205-221] | 61 ± 15 |  |  | 
RQELRCGSGVFIHNDVEA [NS1 10-27] | 63 ± 8 |  |  | 
SGCWYGMEIRPQRHDEK [NS1 327-343] | 78 ± 4 |  |  | 
SQIGLIEVLGKMPEHFM [NS4a 1-17] |  | 132 ± 17 |  | 
TLTHRLMSPHRVPNYNLF [NS3 265-282] |  |  | 150 ± 30 | 169 ± 16
VAAEMAEALRGLPIRY [NS3 228-243] | 46 ± 9 |  |  | 
VFHTLWHTTKGAALM [NS3 45-59] |  | 63 ± 10 |  | 
VFTSVGKAVHQVFGGAFR [E 434-451] |  | 79 ± 19 |  | 116 ± 5
VHQVFGGAFRSLFGGMSW [E 442-459] |  | 101 ± 15 | 442 ± 313 | 117 ± 5
VIGLYGNGVIMPNGSYI [NS3 146-162] |  |  | 58 ± 38 | 
VLAPTRVVAAEMAEALR [NS3 221-237] |  |  | 26 ± 4 | 
VTVNPFVSVATANAKVLI [E 356-373] | 217 ± 51 |  |  | 
VVNPSVKTVREAGILITA [NS4b 187-204] | 83 ± 13 |  |  | 
VWLAYKVAAAGVSYHDRR [NS3 545-562] |  | 110 ± 9 |  | 
WDFGSVGGVFTSVGKAVH [E 426-443] |  | 83 ± 13 |  | 
WHTTKGAALMSGEGRL [NS3 50-65] |  | 191 ± 37 |  | 
YFHRRDLRLMANAICSAV [NS5 771-788] | 135 ± 47 |  |  | 
YISAIVQGERMDEPIPA [NS3 161-177] |  |  | 56 ± 28 | 72 ± 15
